# According to publication PMC4317238 (Pharmacology Research & Perspectives, 2015):
# Ends that are not written are not given here.
# Experiments:
# NPSR(−/−) mice = experiment: Recovery of righting reflex; assay type: in vivo, mouse (congenic to CD-1); details: diazepam 15 mg/kg i.p.
# [1] = molecular target: T1, mouse NPS receptor (NPSR) (Mus musculus, UniProt Q8BZP8); experiment: Calcium mobilization assay, agonist; assay type: cell-based; details: HEK293mNPSR; mean ± SEM
# T1 sequence (Q8BZP8 1-371): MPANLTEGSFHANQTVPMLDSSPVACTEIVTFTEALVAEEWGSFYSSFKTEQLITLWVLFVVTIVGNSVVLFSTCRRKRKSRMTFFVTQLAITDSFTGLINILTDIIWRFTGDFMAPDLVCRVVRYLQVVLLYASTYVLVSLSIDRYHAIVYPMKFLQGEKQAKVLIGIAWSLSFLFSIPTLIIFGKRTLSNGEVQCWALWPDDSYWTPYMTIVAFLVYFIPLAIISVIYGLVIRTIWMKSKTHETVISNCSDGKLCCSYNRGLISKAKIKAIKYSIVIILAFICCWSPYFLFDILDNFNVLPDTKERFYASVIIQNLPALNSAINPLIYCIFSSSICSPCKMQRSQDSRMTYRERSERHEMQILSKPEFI
# their receptors = details: ref Rizzi et al. 2014; Ruzza et al. 2014; cited from earlier work
# [2] = cited from earlier work
molecule,measurement,setting,value
CN1C(=O)CN=C(c2ccccc2)c2cc(Cl)ccc21 [diazepam],"sensitivity to diazepam, NPSR wild type vs. knockout",NPSR(−/−) mice,no differences were measured
"SFRNGVGTGMKKTSFQRAKS [NPS, neuropeptide S]",Emax (increase in intracellular calcium),[1],417 ± 34 % over the basal levels
neurokinin A [NK-A],"potency relative to PWT derivative, calcium mobilization",their receptors,more potent than their PWT derivatives
nociceptin/orphanin FQ [N/OFQ],"potency relative to PWT derivative, calcium mobilization",their receptors,more potent than their PWT derivatives
same,"duration of action, N/OFQ",[2]; ref Rizzi et al. 2014,~20 min
substance P [SP],"potency relative to PWT derivative, calcium mobilization",their receptors,more potent than their PWT derivatives
same,"duration of action, SP and PWT2-SP",[2]; ref Ruzza et al. 2014,~5 min
